Data from patent US11066414B2, “Cot modulators and methods of use thereof” (Gilead Sciences, Inc., priority 2015, dated 2021).
Where two headings read alike, the source gives them in different places.

Key:
TNFα = experiment: Cot Monocyte TNFα Cell Based Assay
Human Cot = Human Cot (Homo sapiens (Human), UniProt P41279); experiment: High Throughput Cot Biochemical Assay
Experimental: Human Cot enzyme activity was measured using KinEASE (Cisbio), a time-resolved fluorescence resonance energy transfer (TR-FRET) immunoassay. In this assay, Cot-catalyzes the phosporylation of a XL665-labeled peptide substrate. Europium conjugated phospho-tyrosine specific antibody binds the resulting phosphorylated peptide. Formation of phosphorylated peptide is quantified by TR-FRET with Europium as the donor and XL665 the acceptor in a 2-step endpoint assay. […] In brief, test compounds serially diluted in DMSO were delivered into Proxy white, low volume, 384 well plates using the Echo 550 acoustic liquid dispenser (Labcyte®). Cot enzyme and substrates were dispensed into assay plates using a Multi-Flo (Bio-Tek Instruments). The standard 5 μL reaction mixture contained 400 μM ATP, 1 μM STK3 peptide, 5 nM of Cot in reaction buffer (10 mM MOPS, pH 7.0, 0.02% NaN3, 0.5 mg/mL BSA, 10 mM MgOAc, 1 mM DTT, 0.025% NP-40, 1.5% glycerol) and 0.1% DMSO.

[1] = Homo sapiens, Monocyte, read-out: EC50 TNF, LPS-stimulated human monocytes, TNFα
[2] = IC50 HTRF, Cot HTRF (TR-FRET) biochemical assay
[3] = Homo sapiens, Monocyte, read-out: EC50 TNF, LPS-stimulated human monocytes, TNFα TR-FRET
[4] = IC50 HTRF, Cot HTRF (TR-FRET KinEASE) biochemical assay, 400 μM ATP
[5] = read-out: EC50 TNF, LPS-stimulated human monocytes, TNFα
[6] = read-out: IC50 HTRF, Cot HTRF (TR-FRET) biochemical assay

Chain of Human Cot (P41279 30-397): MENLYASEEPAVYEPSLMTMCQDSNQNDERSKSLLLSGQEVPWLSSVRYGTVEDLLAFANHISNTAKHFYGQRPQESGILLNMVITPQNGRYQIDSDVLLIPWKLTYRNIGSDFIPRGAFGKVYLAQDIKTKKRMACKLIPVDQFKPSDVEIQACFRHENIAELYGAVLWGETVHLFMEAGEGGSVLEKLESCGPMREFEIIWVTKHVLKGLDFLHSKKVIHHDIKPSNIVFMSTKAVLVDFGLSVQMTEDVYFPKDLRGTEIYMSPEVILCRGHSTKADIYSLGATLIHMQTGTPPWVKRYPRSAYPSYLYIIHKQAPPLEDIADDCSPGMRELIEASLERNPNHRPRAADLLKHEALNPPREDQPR

Compound | EC50 (TNFα; [1]) | IC50 (Human Cot; [2]) | further results
CC(C)(C)N1CCC(n2cc([C@@H](Nc3cc(Cl)c4ncc(C#N)c(Nc5ccc(F)c(Cl)c5)c4c3)c3ccc4sccc4c3)nn2)CC1 [Example 64, (S)-6-((benzo[b]thiophen-5-yl(1-(1-(tert-butyl)piperidin-4-yl)-1H-1,2,3-triazol-4-yl)methyl)amino)-8-chloro-4-((3-chloro-4-fluorophenyl)amino)quinoline-3-carbonitrile] | 2650 nM | 42 nM | 
[2H][C@](Nc1cc(Cl)c2ncc(C#N)c(NC3CCOCC3(C)C)c2c1)(c1ccc(F)nc1)c1cn(C2CC2)nn1 (stereo partly drawn) [Example 92, 8-chloro-6-(((S)-(1-cyclopropyl-1H-1,2,3-triazol-4-yl)(6-fluoropyridin-3-yl)methyl-d)amino)-4-((3,3-dimethyltetrahydro-2H-pyran-4-yl)amino)quinoline-3-carbonitrile] | 65 nM | 6 nM | 
Cc1ccc([C@H](Nc2cc(C#N)c3ncc(C#N)c(NCC(C)(C)C)c3c2)c2cn(C3(C(F)F)CC3)nn2)c(C)n1 [Example 829, (S)-6-(((1-(1-(difluoromethyl)-cyclopropyl)-1H-1,2,3-triazol-4-yl)(2,6-dimethylpyridin-3-yl)methyl)amino)-4-(neopentylamino)quinoline-3,8-dicarbonitrile] |  |  | EC50 (TNFα; [3]): 66 nM; IC50 (Human Cot; [4]): 4 nM
Cc1nc(F)ccc1[C@H](Nc1cc(C#N)c2ncc(C#N)c(NCC(C)(C)C)c2c1)c1cn(CC2(C)CC2)nn1 [Example 866, (S)-6-(((6-fluoro-2-methylpyridin-3-yl)(1-((1-methylcyclopropyl)methyl)-1H-1,2,3-triazol-4-yl)methyl)amino)-4-(neopentylamino)quinoline-3,8-dicarbonitrile] |  |  | EC50 (TNFα; [3]): 18 nM; IC50 (Human Cot; [4]): 2 nM
Cc1nc(F)ccc1[C@H](Nc1cc(Cl)c2ncc(C#N)c(NCC(C)(C)C)c2c1)c1cn(C2(C)COC2)nn1 [Example 759, (S)-8-chloro-6-(((6-fluoro-2-methylpyridin-3-yl)(1-(3-methyloxetan-3-yl)-1H-1,2,3-triazol-4-yl)methyl)amino)-4-(neopentylamino)quinoline-3-carbonitrile] | 42 nM | 2 nM | 
[2H][C@](Nc1cc(Cl)c2ncc(C#N)c(N[C@H](CC)c3ccccc3)c2c1)(c1cccnc1)c1cn(C2CC2)nn1 [Example 159, 8-chloro-6-(((S)-(1-cyclopropyl-1H-1,2,3-triazol-4-yl)(pyridin-3-yl)methyl-d)amino)-4-(((R)-1-phenylpropyl)amino)quinoline-3-carbonitrile] | 95 nM | 2 nM | 
N#Cc1cnc2c(Cl)cc(N[C@@H](c3cocn3)c3cn(C4CCN(C5COC5)CC4)nn3)cc2c1Nc1ccc(Cl)c(Cl)c1F [Example 242, (S)-8-chloro-4-((3,4-dichloro-2-fluorophenyl)amino)-6-((o)(azol-4-yl(1-(1-(oxetan-3-yl)piperidin-4-yl)-1H-1,2,3-triazol-4-yl)methyl)amino)quinoline-3-carbonitrile] |  |  | EC50 (TNFα; [5]): 5800 nM; IC50 (Human Cot; [6]): 143 nM
Cn1nnc2cccc([C@H](Nc3cc(C#N)c4ncc(C#N)c(NCC(C)(C)C)c4c3)c3cn(C4(C(F)F)CC4)nn3)c21 [Example 559, (S)-6-(((4-(1-1-(difluoromethyl)cyclopropyl)-1H-1,2,3-triazol-4-yl)(1-methyl-1H-benzo[d] [1,2,3]triazol-7-yl)methyl)amino)-4-(neopentylamino)quinoline-3,8-dicarbonitrile] |  |  | EC50 (TNFα; [5]): 42 nM; IC50 (Human Cot; [6]): 2 nM
Cc1cncc([C@H](Nc2cc(Cl)c3ncc(C#N)c(Nc4ccc(F)c(Cl)c4)c3c2)c2cn(C(C)C)nn2)c1 [Example 228, (S)-8-chloro-4-((3-chloro-4-fluorophenyl)amino)-6-(((1-isopropyl-1H-1,2,3-triazol-4-yl)(5-methylpyridin-3-yl)methyl)amino)quinoline-3-carbonitrile] | 2310 nM | 18 nM | 
[2H][C@](Nc1cc(Cl)c2ncc(C#N)c(N[C@@H](CC#N)c3ccccc3)c2c1)(c1ccc(F)nc1)c1cn(C2CC2)nn1 [Example 128, 8-chloro-4-(((S)-2-cyano-1-phenylethyl)amino)-6-(((S)-(1-cyclopropyl-1H-1,2,3-triazol-4-yl)(6-fluoropyridin-3-yl)methyl-d)amino)quinoline-3-carbonitrile] | > 10000 nM | 698 nM | 
CC(C)(C)CNc1c(C#N)cnc2c(C#N)cc(N[C@H](c3cn(C4(C(F)(F)F)CC4)nn3)c3ccc(C#N)c4ncccc34)cc12 [Example 910, (S)-6-(((8-cyanoquinolin-5-yl)(1-(1-(trifluoromethyl)cyclopropyl)-1H-1,2,3-triazol-4-yl)methyl)amino)-4-(neopentylamino)quinoline-3,8-dicarbonitrile] |  |  | EC50 (TNFα; [3]): 148 nM; IC50 (Human Cot; [4]): 5 nM
Cc1nc(F)ccc1[C@H](Nc1cc(Cl)c2ncc(C#N)c(NCC(C)(C)C)c2c1)c1nnn(C2(C(F)F)CC2)c1I [Example 945, (S)-8-chloro-6-(((1-(1-(difluoromethyl)cyclopropyl)-5-iodo-1H-1,2,3-triazol-4-yl)(6-fluoro-2-methylpyridin-3-yl)methyl)amino)-4-(neopentylamino)quinoline-3-carbonitrile] |  |  | EC50 (TNFα; [3]): 142 nM; IC50 (Human Cot; [4]): 17 nM
CC(C)(C)CNc1c(C#N)cnc2c(Cl)cc(N[C@H](c3cn(C4(C(F)(F)F)CC4)nn3)c3cccc4cnc(Cl)cc34)cc12 [Example 915, (S)-8-chloro-6-(((3-chloroisoquinolin-5-yl)(1-(1-(trifluoromethyl)cyclopropyl)-1H-1,2,3-triazol-4-yl)methyl)amino)-4-(neopentylamino)quinoline-3-carbonitrile] |  |  | EC50 (TNFα; [3]): 324 nM; IC50 (Human Cot; [4]): 44 nM
CC(C)(C)CNc1c(C#N)cnc2c(C#N)cc(N[C@H](c3cn(C4(C(F)(F)F)CC4)nn3)c3ccc(C#N)c4cnccc34)cc12 [Example 670, (S)-6-(((8-cyanoisoquinolin-5-yl)(1-(1-(trifluoromethyl)cyclopropyl)-1H-1,2,3-triazol-4-yl)methyl)amino)-4-(neopentylamino)quinoline-3,8-dicarbonitrile] | 102 nM | 5 nM | 
Cc1nc(F)ccc1[C@H](Nc1cc(Cl)c2ncc(C#N)c(NCC(C)(C)C)c2c1)c1cn(C2(C3CC3)CC2)nn1 [Example 547] |  |  | EC50 (TNFα; [5]): 33 nM; IC50 (Human Cot; [6]): 2 nM
CC(C)(C)CNc1c(C#N)cnc2c(S(C)(=O)=O)cc(N[C@H](c3cn(C4(C(F)(F)F)CC4)nn3)c3cccc4ncsc34)cc12 [Example 442, (S)-6-((benzo[d]thiazol-7-yl(1-(1-(trifluoromethyl)cyclopropyl)-1H-1,2,3-triazol-4-yl)methyl)amino)-8-(methyl-sulfonyl)-4-(neopentylamino)quinoline-3-carbonitrile] | 2690 nM | 56 nM | 
Cc1nc(F)ccc1[C@H](Nc1cc(Cl)c2ncc(C#N)c(NCC(C)(C)C)c2c1)c1cn(C2(C(N)=O)CC2)nn1 [Example 477, (S)-1-(4-(((8-chloro-3-cyano-4-(neopentylamino)quinolin-6-yl)amino)(6-fluoro-2-methylpyridin-3-yl)methyl)-1H-1,2,3-triazol-1-yl)cyclopropane-1-carboxamide] | 185 nM | 2 nM | 
COc1nccc2c([C@H](Nc3cc(Cl)c4ncc(C#N)c(NCC(C)(C)C(F)(F)F)c4c3)c3cn(C4(C(F)F)CC4)nn3)cccc12 [Example 934, (S)-8-chloro-6-(((1-(1-(difluoromethyl)cyclopropyl)-1H-1,2,3-triazol-4-yl)(1-methoxylsoquinolin-5-yl)methyl)amino)-4-((3,3,3-trifluoro-2,2-dimethylpropyl)amino)quinoline-3-carbonitrile] |  |  | EC50 (TNFα; read-out: EC50 TNF, LPS-stimulated human monocytes, TNFα TR-FRET): 81 nM; IC50 (Human Cot; read-out: IC50 HTRF, Cot HTRF (TR-FRET KinEASE) biochemical assay, 400 μM ATP): 7 nM
[2H][C@](Nc1cc(OC)c2ncc(C#N)c(NCC(C)(C)C)c2c1)(c1ccc(F)nc1)c1cn(C2CC2)nn1 [Example 98, (S)-6-(((1-cyclopropyl-1H-1,2,3-triazol-4-yl)(6-fluoropyridin-3-yl)methyl-d)amino)-8-methoxy-4-(neopentylamino)quinoline-3-carbonitrile] | 821 nM | 49 nM | 
CC(C)(C)N1CCC(n2cc([C@@H](Nc3cc(Cl)c4ncc(C#N)c(Nc5ccc(F)c(Cl)c5)c4c3)c3cncs3)nn2)CC1 [Example 370] |  |  | EC50 (TNFα; [5]): 232 nM; IC50 (Human Cot; [6]): 8 nM
CC(C)(C)CNc1c(C#N)cnc2c(Cl)cc(N[C@H](c3cn(C4(C(F)F)CC4)nn3)c3cccn4nccc34)cc12 [Example 538, (S)-8-chloro-6-(((1-(1-(difluoromethyl)-cyclopropyl)-1H-1,2,3-triazol-4-yl)(pyrazolo[1,5-a]pyridin-4-yl)methyl)amino)-4-(neopentylamino)-quinoline-3-carbonitrile] | 109 nM | 5 nM | 
Cc1ncccc1[C@H](Nc1cc(Cl)c2ncc(C#N)c(N[C@H](CO)c3ccccc3)c2c1)c1c[nH]nn1 [Example 218, 8-chloro-4-(((S)-2-hydroxy-1-phenylethyl)amino)-6-(((S)-(2-methylpyridin-3-yl)(1H-1,2,3-triazol-4-yl)methyl)amino)quinoline-3-carbonitrile] | 2710 nM | 26 nM | 
N#Cc1cnc2c(Cl)cc(N[C@H](c3cn(C4CC4)nn3)c3ccc(F)nc3F)cc2c1Nc1cnc(F)c(F)c1 [Example 149, (S)-8-chloro-6-(((1-cyclopropyl-1H-1,2,3-triazol-4-yl)(2,6-difluoropyridin-3-yl)methyl)amino)-4-((5,6-difluoropyridin-3-yl)amino)quinoline-3-carbonitrile] | 381 nM | 8 nM | 
